According to patent US20240400564A1 (Syndax Pharmaceuticals, Inc, priority 2021, published 2024):
Read-outs that look alike come from different tables or passages of the source.

What was measured:
[1] = tested on: MLLr leukemia cell line MV4-11; assay: Cell proliferation assay MV4;11 (CellTiter-Glo, 72 hours); type: cell-based; conditions: Homo sapiens, read-out: MV4
In short: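 Cells in IMDM/10% FBS, seeded from a 15,000 cells/ml suspension, were exposed for 72 h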

hERG = hERG (Homo sapiens, UniProt Q12809); assay: Patch clamp assay (hERG tail currents, whole-cell)
hERG, sequence (Q12809 whole entry): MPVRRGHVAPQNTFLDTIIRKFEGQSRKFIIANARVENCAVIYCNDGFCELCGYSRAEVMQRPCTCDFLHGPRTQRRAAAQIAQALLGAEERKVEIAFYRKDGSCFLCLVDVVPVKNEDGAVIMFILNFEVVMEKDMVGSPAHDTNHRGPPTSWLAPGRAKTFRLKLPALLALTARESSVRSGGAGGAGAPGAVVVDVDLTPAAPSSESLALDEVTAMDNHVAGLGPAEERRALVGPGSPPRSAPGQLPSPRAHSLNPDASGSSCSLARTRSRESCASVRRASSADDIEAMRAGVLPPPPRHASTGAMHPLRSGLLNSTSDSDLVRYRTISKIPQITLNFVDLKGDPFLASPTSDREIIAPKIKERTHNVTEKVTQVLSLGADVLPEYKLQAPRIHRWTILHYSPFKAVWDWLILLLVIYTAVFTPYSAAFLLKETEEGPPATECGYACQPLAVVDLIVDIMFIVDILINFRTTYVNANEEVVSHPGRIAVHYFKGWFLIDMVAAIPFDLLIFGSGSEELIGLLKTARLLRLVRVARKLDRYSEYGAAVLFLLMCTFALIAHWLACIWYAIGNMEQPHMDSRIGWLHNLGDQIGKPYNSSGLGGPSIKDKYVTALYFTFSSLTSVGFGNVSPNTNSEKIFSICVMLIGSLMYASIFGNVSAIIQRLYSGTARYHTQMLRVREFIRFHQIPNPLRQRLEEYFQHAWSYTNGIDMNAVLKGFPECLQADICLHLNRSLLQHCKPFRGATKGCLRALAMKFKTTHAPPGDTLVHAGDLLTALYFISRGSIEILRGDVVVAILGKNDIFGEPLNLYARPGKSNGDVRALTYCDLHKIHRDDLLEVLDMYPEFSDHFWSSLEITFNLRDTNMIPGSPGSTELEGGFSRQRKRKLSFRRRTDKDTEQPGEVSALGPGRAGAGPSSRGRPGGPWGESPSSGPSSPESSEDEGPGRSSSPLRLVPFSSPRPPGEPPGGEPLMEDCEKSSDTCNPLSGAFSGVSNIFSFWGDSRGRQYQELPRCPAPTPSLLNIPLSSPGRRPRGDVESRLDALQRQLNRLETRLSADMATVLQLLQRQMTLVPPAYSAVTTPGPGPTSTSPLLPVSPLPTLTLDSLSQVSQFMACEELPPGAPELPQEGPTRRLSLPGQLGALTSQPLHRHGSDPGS

[2] = MV4-11 cells, 72 hours, CellTiter-Glo, 11 IC50

Compound | IC50 ([1]; MV4-11, 72 h, 11 IC50 (nM)) [nM] | hERG % Remaining (hERG; 30 μM compound) | IC50 [1, 2] [nM] | hERG % Remaining (hERG; 10 μM compound)
CCS(=O)(=NC)N[C@@H]1CC[C@@H](CN2CCC3(CC2)CN(c2ncncc2Oc2ccc(F)cc2C(=O)N(C(C)C)C(C)C)C3)OC1 (stereo partly drawn) [Example 231, 5-Fluoro-N,N-diisopropyl-2-((4-(7-(((2S,5R)-5-(N′-methylethylsulfonoamidimidamido)tetrahydro-2H-pyran-2-yl)methyl)-2,7-diazaspiro[3.5]nonan-2-yl)pyrimidin-5-yl)oxy)benzamide] | < 100 | +++ (≥66%) | – | –
CC(C)N(CC(F)F)C(=O)c1cc(F)ccc1Oc1cncnc1N1CC2(CCN(C[C@@H]3CC[C@@H](NS(=O)(=O)c4cnn(C)c4)CO3)CC2)C1 [Example 100, N-(2,2-Difluoroethyl)-5-fluoro-N-isopropyl-2-((4-(7-(((2S,5R)-5-((1-methyl-1H-pyrazole)-4-sulfonamido)tetrahydro-2H-pyran-2-yl)methyl)-2,7-diazaspiro[3.5]nonan-2-yl)pyrimidin-5-yl)oxy)benzamide] | – | +++ (≥66%) | < 100 | +++ (≥66%)
CC(C)N(C(=O)c1cc(F)ccc1Oc1cncnc1N1CC2(CCN(C[C@@H]3CC[C@@H](NS(=O)(=O)N4CC5COCC5C4)CO3)CC2)C1)C(C)C (stereo partly drawn) [Example 224, 5-Fluoro-2-((4-(7-(((2S,5R)-5-((hexahydro-1H-furo[3,4-c]pyrrole)-5-sulfonamido)tetrahydro-2H-pyran-2-yl)methyl)-2,7-diazaspiro[3.5]nonan-2-yl)pyrimidin-5-yl)oxy)-N,N-diisopropylbenzamide] | – | +++ (≥66%) | < 100 | –
CC(C)N(CC(F)F)C(=O)c1cc(F)ccc1Oc1cncnc1N1CC2(CCN(C[C@@H]3CC[C@@H](NS(=O)(=O)c4nn(C)cc4F)CO3)CC2)C1 [Example 241, N-(2,2-Difluoroethyl)-5-fluoro-2-((4-(7-(((2S,5R)-5-((4-fluoro-1-methyl-1H-pyrazole)-3-sulfonamido)tetrahydro-2H-pyran-2-yl)methyl)-2,7-diazaspiro[3.5]nonan-2-yl)pyrimidin-5-yl)oxy)-N-isopropylbenzamide] | – | ++ (233% and ≤66%) | < 100 | –
Cc1nn(C)cc1S(=O)(=O)N[C@@H]1CC[C@@H](CN2CCC3(CC2)CN(c2ncncc2Oc2ccc(F)cc2C(=O)N(CC(F)F)C(C)C)C3)OC1 [Example 105, N-(2,2-Difluoroethyl)-2-((4-(7-(((2S,5R)-5-((1,3-dimethyl-1H-pyrazole)-4-sulfonamido)tetrahydro-2H-pyran-2-yl)methyl)-2,7-diazaspiro[3.5]nonan-2-yl)pyrimidin-5-yl)oxy)-5-fluoro-N-isopropylbenzamide] | – | +++ (≥66%) | < 100 | –
Cc1nc(S(=O)(=O)N[C@@H]2CC[C@@H](CN3CCC4(CC3)CN(c3ncncc3Oc3ccc(F)cc3C(=O)N(C(C)C)C(C)C)C4)OC2)cs1 [Example 81, 5-Fluoro-N,N-diisopropyl-2-((4-(7-(((2S,5R)-5-((2-methylthiazole)-4-sulfonamido)tetrahydro-2H-pyran-2-yl)methyl)-2,7-diazaspiro[3.5]nonan-2-yl)pyrimidin-5-yl)oxy)benzamide] | – | ++ (233% and ≤66%) | < 100 | ++ (233% and ≤66%)
CCN(C(=O)c1cc(F)ccc1Oc1cncnc1N1CC2(CCN(C[C@@H]3CC[C@@H](NS(=O)(=O)c4cnc(C)o4)CO3)CC2)C1)C(C)C [Example 72, N-Ethyl-5-fluoro-N-isopropyl-2-((4-(7-(((2S,5R)-5-((2-methyloxazole)-5-sulfonamido)tetrahydro-2H-pyran-2-yl)methyl)-2,7-diazaspiro[3.5]nonan-2-yl)pyrimidin-5-yl)oxy)benzamide] | – | + (<33%) | < 100 | ++ (233% and ≤66%)
CC(C)N(C(=O)c1cc(F)ccc1Oc1cncnc1N1CC2(CCN(C[C@@H]3CC[C@@H](NS(=O)(=O)c4cnn(C)c4Cl)CO3)CC2)C1)C(C)C [Example 82, 2-((4-(7-(((2S,5R)-5-((5-Chloro-1-methyl-1H-pyrazole)-4-sulfonamido)tetrahydro-2H-pyran-2-yl)methyl)-2,7-diazaspiro[3.5]nonan-2-yl)pyrimidin-5-yl)oxy)-5-fluoro-N,N-diisopropylbenzamide] | – | + (<33%) | < 100 | ++ (233% and ≤66%)
Cc1ncc(S(=O)(=O)N[C@@H]2CC[C@@H](CN3CCC4(CC3)CN(c3ncncc3Oc3ccc(F)cc3C(=O)N(C(C)C)C(C)C)C4)OC2)s1 [Example 84, 5-Fluoro-N,N-diisopropyl-2-((4-(7-(((2S,5R)-5-((2-methylthiazole)-5-sulfonamido)tetrahydro-2H-pyran-2-yl)methyl)-2,7-diazaspiro[3.5]nonan-2-yl)pyrimidin-5-yl)oxy)benzamide] | – | + (<33%) | < 100 | ++ (233% and ≤66%)
CC(C)N(C(=O)c1cc(F)ccc1Oc1cncnc1N1CC2(CCN(C[C@@H]3CC[C@@H](NS(=O)(=O)c4cnn(C)c4)CO3)CC2)C1)C(C)C [Example 86, 5-Fluoro-N,N-diisopropyl-2-((4-(7-(((2S,5R)-5-((1-methyl-1H-pyrazole)-4-sulfonamido)tetrahydro-2H-pyran-2-yl)methyl)-2,7-diazaspiro[3.5]nonan-2-2-yl)pyrimidin-5-yl)oxy)benzamide] | – | +++ (≥66%) | < 100 | +++ (≥66%)
CCN(C(=O)c1cc(F)ccc1Oc1cncnc1N1CC2(CCN(C[C@@H]3CC[C@@H](NS(=O)(=O)c4csc(C)n4)CO3)CC2)C1)C(C)C [Example 71, N-Ethyl-5-fluoro-N-isopropyl-2-((4-(7-(((2S,5R)-5-((2-methylthiazole)-4-sulfonamido)tetrahydro-2H-pyran-2-yl)methyl)-2,7-diazaspiro[3.5]nonan-2-yl)pyrimidin-5-yl)oxy)benzamide] | – | ++ (233% and ≤66%) | < 100 | +++ (≥66%)
CC(C)N(CC(F)F)C(=O)c1cc(F)ccc1Oc1cncnc1N1CC2(CCN(C[C@@H]3CC[C@@H](NS(=O)(=O)c4ccn(C)n4)CO3)CC2)C1 [Example 103, N-(2,2-Difluoroethyl)-5-fluoro-N-isopropyl-2-((4-(7-(((2S,5R)-5-((1-methyl-1H-pyrazole)-3-sulfonamido)tetrahydro-2H-pyran-2-yl)methyl)-2,7-diazaspiro[3.5]nonan-2-yl)pyrimidin-5-yl)oxy)benzamide] | – | +++ (≥66%) | < 100 | –
Cc1c(S(=O)(=O)N[C@@H]2CC[C@@H](CN3CCC4(CC3)CN(c3ncncc3Oc3ccc(F)cc3C(=O)N(CC(F)F)C(C)C)C4)OC2)cnn1C [Example 104, N-(2,2-Difluoroethyl)-2-((4-(7-(((2S,5R)-5-((1,5-dimethyl-1H-pyrazole)-4-sulfonamido)tetrahydro-2H-pyran-2-yl)methyl)-2,7-diazaspiro[3.5]nonan-2-yl)pyrimidin-5-yl)oxy)-5-fluoro-N-isopropylbenzamide] | – | +++ (≥66%) | < 100 | –
CC(C)N(C(=O)c1cc(F)ccc1Oc1cncnc1N1CC2(CCN(C[C@@H]3CC[C@@H](NS(=O)(=O)c4cnn(C(F)F)c4)CO3)CC2)C1)C(C)C [Example 85, 2-((4-(7-(((2S,5R)-5-((1-(Difluoromethyl)-1H-pyrazole)-4-sulfonamido)tetrahydro-2H-pyran-2-yl)methyl)-2,7-diazaspiro[3.5]nonan-2-yl)pyrimidin-5-yl)oxy)-5-fluoro-N,N-diisopropylbenzamide] | – | + (<33%) | < 100 | ++ (233% and ≤66%)
Cc1nc(S(=O)(=O)N[C@@H]2CC[C@@H](CN3CCC4(CC3)CN(c3ncncc3Oc3ccc(F)cc3C(=O)N(C(C)C)C(C)C)C4)OC2)co1 [Example 91, 5-Fluoro-N,N-diisopropyl-2-((4-(7-(((2S,5R)-5-((2-methyloxazole)-4-sulfonamido)tetrahydro-2H-pyran-2-yl)methyl)-2,7-diazaspiro[3.5]nonan-2-yl)pyrimidin-5-yl)oxy)benzamide] | – | ++ (233% and ≤66%) | < 100 | –
CC(C)N(C(=O)c1cc(F)ccc1Oc1cncnc1N1CC2(CCN(C[C@@H]3CC[C@@H](NS(=O)(=O)c4ccn(C)n4)CO3)CC2)C1)C(C)C [Example 87, 5-Fluoro-N,N-diisopropyl-2-((4-(7-(((2S,5R)-5-((1-methyl-1H-pyrazole)-3-sulfonamido)tetrahydro-2H-pyran-2-yl)methyl)-2,7-diazaspiro[3.5]nonan-2-yl)pyrimidin-5-yl)oxy)benzamide] | – | +++ (≥66%) | < 100 | –
CCN(C(=O)c1cc(F)ccc1Oc1cncnc1N1CC2(CCN(C[C@@H]3CC[C@@H](NS(=O)(=O)N4CCC[C@@H]4C)CO3)CC2)C1)C(C)C [Example 201, N-Ethyl-5-fluoro-N-isopropyl-2-((4-(7-(((2S,5R)-5-(((S)-2-methylpyrrolidine)-1-sulfonamido)tetrahydro-2H-pyran-2-yl)methyl)-2,7-diazaspiro[3.5]nonan-2-yl)pyrimidin-5-yl)oxy)benzamide] | – | + (<33%) | < 100 | + (<33%)
CC(C)N(C(=O)c1cc(F)ccc1Oc1cncnc1N1CC2(CCN(C[C@@H]3CC[C@@H](NS(=O)(=O)N4CCC[C@H]4C)CO3)CC2)C1)C(C)C [Example 203, 5-Fluoro-N,N-diisopropyl-2-((4-(7-(((2S,5R)-5-(((R)-2-methylpyrrolidine)-1-sulfonamido)tetrahydro-2H-pyran-2-yl)methyl)-2,7-diazaspiro[3.5]nonan-2-yl)pyrimidin-5-yl)oxy)benzamide] | – | + (<33%) | < 100 | –
